Converted amounts (≈) assume the structure as drawn. Read-outs that look alike come from different tables or passages of the source.
Tests used:
Experiment in all cases: Minimum inhibitory concentration (MIC) by agar dilution
Type in all cases: cell-based
[1] = test system: Enterobacter cloacae; conditions: 20 h, read-out: MINIMUM INHIBITORY CONCENTRATION
Description: (§1) Briefly, MIC values are determined in unsupplemented Mueller Hinton Agar (MHA). The compounds tested are diluted serially into molten MHA at 47° C. The agar is poured into petri dishes and allowed to harden. The various bacteria used for testing are grown overnight on MHA at 35° C. and transferred to Trypticase soy broth (TSB) until a turbidity of 0.5 McFarland standard is obtained. The bacteria are diluted one to 20 in TSB and inoculated on the plates (1 μl using a Steers replicator).
as §1, with “Compounds of this invention can also be tested for in vitro antimicrobial activity using standard testing procedures such as the determination of minimum inhibitory concentration (MIC) by agar dilution as described in "Methods for Dilution Antimicrobial Susceptibility Tests for Bacteria That Grow Aerobically" (MFT) published Jan. […] Briefly,” for “Briefly,”, “(1μl” for “(1 μl”

[2] = test system: Acinetobacter calcoaceticus; conditions: Acinetobacter calcoaceticus, 20 h, read-out: MINIMUM INHIBITORY CONCENTRATION, Cult No. 12170, MHA
Description: as §1, with “The antibacterial activity of the compounds of Formula IC was determined by using standard testing procedures such as the determination of minimum inhibitory concentration (MIC) by agar dilution as described in "Methods for Dilution Antimicrobial Susceptibility Tests for Bacteria That Grow Aerobically" (MFT) published January 1983 by the National Committee for Clinical Laboratory Standards, 771 East Lancaster Avenue, Villanova, Pa. 19084, USA. Briefly,” for “Briefly,”
(§2) Compounds of this invention can also be tested for in vitro antimicrobial activity using standard testing procedures such as the determination of minimum inhibitory concentration (MIC) by agar dilution as described in "Methods for Dilution Antimicrobial Susceptibility Tests for Bacteria That Grow Aerobically" (MFT) published Jan. 1983 by the National Committee for Clinical Laboratory Standards, 771 East Lancaster Avenue, Villanova, Penna. 19084, USA. Briefly, MIC values are determined in unsupplemented Mueller Hinton Agar (MHA). The compounds tested are diluted serially into molten MHA at 47° C. The agar is poured into petri dishes and allowed to harden. The various bacteria used for testing are grown overnight on MHA at 35° C. and transferred to Trypticase soy broth (TSB) until a turbidity of 0.5 McFarland standard is obtained. The bacteria are diluted one to 20 in TSB and inoculated on the plates (1μl using a Steers replicator). […] The MIC test results of selected of Formula B compounds of this invention are found in Tables B2-B9.

[3] = test system: Citerobacter freundii; conditions: 20 h, read-out: MINIMUM INHIBITORY CONCENTRATION
Description: (§3) The antibacterial activity of the compounds of Formula IC was determined by using standard testing procedures such as the determination of minimum inhibitory concentration (MIC) by agar dilution as described in "Methods for Dilution Antimicrobial Susceptibility Tests for Bacteria That Grow Aerobically" (MFT) published January 1983 by the National Committee for Clinical Laboratory Standards, 771 East Lancaster Avenue, Villanova, Pa. 19084, USA. Briefly, MIC values are determined in unsupplemented Mueller Hinton Agar (MHA). The compounds tested are diluted serially into molten MHA at 47° C. The agar is poured into petri dishes and allowed to harden. The various bacteria used for testing are grown overnight on MHA at 35° C. and transferred to Trypticase soy broth (TSB) until a turbidity of 0.5 McFarland standard is obtained. The bacteria are diluted one to 20 in TSB and inoculated on the plates (1 μl using a Steers replicator).
as §2

[4] = test system: Escherichia coli; conditions: Escherichia coli, 20 h
Description: as §3, §2

[5] = test system: Klebsiella pneumoniae; conditions: 20 h, read-out: MINIMUM INHIBITORY CONCENTRATION
Description: as §3, §2

[6] = test system: Proteus penneri; conditions: Proteus penneri, 20 h, read-out: MINIMUM INHIBITORY CONCENTRATION, Cult No. 9679, MHA
Description: as §3, §2

[7] = test system: Pseudomonas aeruginosa; conditions: Pseudomonas aeruginosa, 20 h
Description: as §3, §2

[8] = test system: Serratia marcescens; conditions: 20 h, read-out: MINIMUM INHIBITORY CONCENTRATION
Description: as §3, §2

[9] = test system: Staphylococcus aureus; conditions: Staphylococcus aureus, 20 h
Description: as §3, §2

[10] = test system: Staphylococcus epidermidis; conditions: 20 h, read-out: MINIMUM INHIBITORY CONCENTRATION
Description: as §3, §2

[11] = test system: Streptococcus faecalis; conditions: Enterococcus faecalis, 20 h, read-out: MINIMUM INHIBITORY CONCENTRATION
Description: as §3, §2

[12] = test system: Streptococcus pneumoniae; conditions: Streptococcus pneumoniae, 20 h, read-out: MINIMUM INHIBITORY CONCENTRATION, Cult No. 41, MHA
Description: as §3, §2

[13] = test system: Streptococcus pyogenes; conditions: Streptococcus pyogenes, 20 h, read-out: MINIMUM INHIBITORY CONCENTRATION, Cult No. 152, MHA
Description: as §3, §2

[14] = read-out: MINIMUM INHIBITORY CONCENTRATION, Cult No. 6674, MHA
[15] = read-out: MINIMUM INHIBITORY CONCENTRATION, Cult No. 9451, MHA
[16] = read-out: MINIMUM INHIBITORY CONCENTRATION, Cult No. 9855, MHA
[17] = read-out: MINIMUM INHIBITORY CONCENTRATION, Cult No. 9952, MHA
[18] = read-out: MINIMUM INHIBITORY CONCENTRATION, Cult No. 6676, MHA
[19] = read-out: MINIMUM INHIBITORY CONCENTRATION, Cult No. 9191, MHA
[20] = read-out: MINIMUM INHIBITORY CONCENTRATION, Cult No. 12120, MHA
[21] = read-out: MINIMUM INHIBITORY CONCENTRATION, Cult No. 6685, MHA
[22] = read-out: MINIMUM INHIBITORY CONCENTRATION, Cult No. 9213, MHA
[23] = read-out: MINIMUM INHIBITORY CONCENTRATION, Cult No. 9218, MHA
[24] = read-out: MINIMUM INHIBITORY CONCENTRATION, Cult No. 9271, MHA

Row | Compound | MIC [1] [µg/mL] | MIC [2] [µg/mL] | MIC [3] [µg/mL] | MIC [4, 14] [µg/mL] | MIC [4, 15] [µg/mL] | MIC [4, 16] [µg/mL] | MIC [4, 17] [µg/mL] | MIC [5] [µg/mL] | MIC [6] [µg/mL] | MIC [7, 18] [µg/mL] | MIC [7, 19] [µg/mL] | MIC [7, 20] [µg/mL] | MIC [8] [µg/mL] | MIC [9, 21] [µg/mL] | MIC [9, 22] [µg/mL] | MIC [9, 23] [µg/mL] | MIC [9, 24] [µg/mL] | MIC [10] [µg/mL] | MIC [11] [µg/mL] | MIC [12] [µg/mL] | also measured
1 | O=C(O)c1cn(C23CC(C2)C3)c2c(F)c(N3CCC(O)C3)c(F)cc2c1=O (stereo not drawn) [No. 3, 7-(3-hydroxy-1-pyrrolidinyl)-1-(bicyclo[1.1.1]pent-1-yl)-1,4-dihydro-6,8-difluoro-4-oxo-3-quinolinecarboxylic acid] | 0.25 (≈ 0.664 µM) | 0.25 (≈ 0.664 µM) | 0.25 (≈ 0.664 µM) | 0.25 (≈ 0.664 µM) | 0.25 (≈ 0.664 µM) | 0.25 (≈ 0.664 µM) | 0.125 (≈ 0.332 µM) | 0.5 (≈ 1.33 µM) | 0.5 (≈ 1.33 µM) | 2 (≈ 5.31 µM) | 2 (≈ 5.31 µM) | 1 (≈ 2.66 µM) | 1 (≈ 2.66 µM) | 0.06 (≈ 0.159 µM) | 0.125 (≈ 0.332 µM) | 0.125 (≈ 0.332 µM) | 0.125 (≈ 0.332 µM) | 0.125 (≈ 0.332 µM) | 1 (≈ 2.66 µM) | 1 (≈ 2.66 µM) | MIC [13]: 2 µg/mL (≈ 5.31 µM)
2 | O=C(O)c1cn(C23CC(C2)C3)c2nc(N3CCNCC3)c(F)cc2c1=O [No. 4, 7-(1-piperazinyl)-1-(bicyclo[1.1.1]pent-1-yl)-1,4-dihydro-6-fluoro-4-oxo-1,8-naphthyridine-3-carboxylic acid] | 0.06 (≈ 0.167 µM) | 0.25 (≈ 0.698 µM) | 0.06 (≈ 0.167 µM) | 0.06 (≈ 0.167 µM) | 0.06 (≈ 0.167 µM) | 0.06 (≈ 0.167 µM) | 0.06 (≈ 0.167 µM) | 0.125 (≈ 0.349 µM) | 0.5 (≈ 1.4 µM) | 2 (≈ 5.58 µM) | 1 (≈ 2.79 µM) | 0.5 (≈ 1.4 µM) | 0.25 (≈ 0.698 µM) | 0.25 (≈ 0.698 µM) | 0.5 (≈ 1.4 µM) | 0.5 (≈ 1.4 µM) | 0.5 (≈ 1.4 µM) | 0.25 (≈ 0.698 µM) | 2 (≈ 5.58 µM) | 2 (≈ 5.58 µM) | MIC [13]: 2 µg/mL (≈ 5.58 µM)
3 | CN1CCN(c2c(F)cc3c(=O)c(C(=O)O)cn(C45CC(C4)C5)c3c2F)CC1 [No. 99, 7-(4-methyl-1-piperazinyl)-1-(bicyclo[1.1.1]pent-1-yl)-1,4-dihydro-6,8-difluoro-4-oxo-3-quinolinecarboxylic acid] | 0.25 (≈ 0.642 µM) | 0.125 (≈ 0.321 µM) | 0.25 (≈ 0.642 µM) | 0.25 (≈ 0.642 µM) | 0.255 (≈ 0.655 µM) | 0.25 (≈ 0.642 µM) | 0.125 (≈ 0.321 µM) | 0.5 (≈ 1.28 µM) | 2 (≈ 5.14 µM) | 4 (≈ 10.3 µM) | 4 (≈ 10.3 µM) | 2 (≈ 5.14 µM) | 1 (≈ 2.57 µM) | 0.5 (≈ 1.28 µM) | 0.5 (≈ 1.28 µM) | 0.5 (≈ 1.28 µM) | 0.5 (≈ 1.28 µM) | 0.5 (≈ 1.28 µM) | 4 (≈ 10.3 µM) | 2 (≈ 5.14 µM) | MIC [13]: 2 µg/mL (≈ 5.14 µM)

— US5262417A, “Antibacterial quinolone compounds” (The Upjohn Company, priority 1991, dated 1993)
